Reference: the NIST ThermoML archive (doi:10.1021/je060271a)
Where “and” joins values, the source holds several entries; their conditions need not be identical. Equal entries are not always repeated.

Details: Liquid, Vibrating tube method

CCCCCC(=O)OCC(COC(=O)CCCCC)(COC(=O)CCCCC)COC(=O)CCCCC [pentaerythritol tetrahexanoate]
Details	mass density
323.15 K, 11949 kPa	980.8 kg/m3
323.15 K, 11977 kPa	980.8 kg/m3
323.15 K, 12000 kPa	980.8 kg/m3
323.15 K, 12028 kPa	980.8 kg/m3
323.15 K, 12051 kPa	980.9 kg/m3
323.15 K, 12077 kPa	980.9 kg/m3
323.15 K, 12104 kPa	981 kg/m3
323.15 K, 12127 kPa	980.9 kg/m3
323.15 K, 12155 kPa	980.9 kg/m3
323.15 K, 12178 kPa	981 kg/m3
323.15 K, 12205 kPa	981 kg/m3
323.15 K, 12233 kPa	980.9 kg/m3
323.15 K, 12257 kPa	981 kg/m3
323.15 K, 12285 kPa	981.1 kg/m3
323.15 K, 12310 kPa	981.2 kg/m3
323.15 K, 12338 kPa	981.1 kg/m3
323.15 K, 12362 kPa	981.2 kg/m3
323.15 K, 12390 kPa	981.1 kg/m3
323.15 K, 12414 kPa	981 kg/m3
323.15 K, 12442 kPa	981.2 kg/m3
323.15 K, 12471 kPa	981.2 kg/m3
323.15 K, 12494 kPa	981.2 kg/m3
323.15 K, 12523 kPa	981.3 kg/m3
323.15 K, 12547 kPa	981.4 kg/m3
323.15 K, 12576 kPa	981.2 kg/m3
323.15 K, 12605 kPa	981.4 kg/m3
323.15 K, 12630 kPa	981.2 kg/m3
323.15 K, 12927 kPa	981.5 kg/m3
323.15 K, 12950 kPa	981.5 kg/m3
323.15 K, 12980 kPa	981.6 kg/m3
323.15 K, 13006 kPa	981.6 kg/m3
323.15 K, 13029 kPa	981.6 kg/m3
323.15 K, 13186 kPa	981.7 kg/m3
323.15 K, 13214 kPa	981.6 kg/m3
323.15 K, 13237 kPa	981.6 kg/m3
323.15 K, 13264 kPa	981.8 kg/m3
323.15 K, 13292 kPa	981.7 kg/m3
323.15 K, 13315 kPa	981.8 kg/m3
323.15 K, 13345 kPa	981.8 kg/m3
323.15 K, 13368 kPa	981.9 kg/m3
323.15 K, 13396 kPa	981.8 kg/m3
323.15 K, 13420 kPa	981.8 kg/m3
323.15 K, 13891 kPa	982.1 kg/m3
323.15 K, 13918 kPa	982.1 kg/m3
323.15 K, 13941 kPa	982.1 kg/m3
323.15 K, 13969 kPa	982.2 kg/m3
323.15 K, 13992 kPa	982.2 kg/m3
323.15 K, 14020 kPa	982.3 kg/m3
323.15 K, 14514 kPa	982.5 kg/m3
323.15 K, 14565 kPa	982.6 kg/m3
323.15 K, 14593 kPa	982.6 kg/m3
323.15 K, 14621 kPa	982.6 kg/m3
323.15 K, 14645 kPa	982.6 kg/m3
323.15 K, 14674 kPa	982.6 kg/m3
323.15 K, 14698 kPa	982.5 kg/m3
323.15 K, 14726 kPa	982.7 kg/m3
323.15 K, 14750 kPa	982.7 kg/m3
323.15 K, 14778 kPa	982.8 kg/m3
323.15 K, 14807 kPa	982.7 kg/m3
323.15 K, 14831 kPa	982.8 kg/m3
323.15 K, 15257 kPa	983 kg/m3
323.15 K, 15281 kPa	983.1 kg/m3
323.15 K, 15309 kPa	983.1 kg/m3
323.15 K, 15339 kPa	983 kg/m3
323.15 K, 15364 kPa	983.2 kg/m3
323.15 K, 15393 kPa	983.1 kg/m3
323.15 K, 15417 kPa	983.1 kg/m3
323.15 K, 20896 kPa	986.7 kg/m3
323.15 K, 22666 kPa	987.8 kg/m3
323.15 K, 28442 kPa	991.1 kg/m3
323.15 K, 28670 kPa	991.3 kg/m3
323.15 K, 28695 kPa	991.4 kg/m3
323.15 K, 28724 kPa	991.4 kg/m3
323.15 K, 28754 kPa	991.4 kg/m3
323.15 K, 28783 kPa	991.4 kg/m3
323.15 K, 28808 kPa	991.4 kg/m3
323.15 K, 28838 kPa	991.4 kg/m3
323.15 K, 28867 kPa	991.4 kg/m3
323.15 K, 28897 kPa	991.6 kg/m3
323.15 K, 28927 kPa	991.5 kg/m3
323.15 K, 28957 kPa	991.6 kg/m3
323.15 K, 28982 kPa	991.5 kg/m3
323.15 K, 29012 kPa	991.5 kg/m3
323.15 K, 29044 kPa	991.5 kg/m3
323.15 K, 29070 kPa	991.5 kg/m3
323.15 K, 29101 kPa	991.7 kg/m3
323.15 K, 29132 kPa	991.7 kg/m3
323.15 K, 29158 kPa	991.6 kg/m3
323.15 K, 29554 kPa	991.8 kg/m3
323.15 K, 29577 kPa	991.9 kg/m3
323.15 K, 29762 kPa	992 kg/m3
323.15 K, 29785 kPa	992 kg/m3
323.15 K, 29812 kPa	992 kg/m3
323.15 K, 29839 kPa	992.1 kg/m3
323.15 K, 29866 kPa	992.2 kg/m3
323.15 K, 29893 kPa	992.1 kg/m3
323.15 K, 29921 kPa	992 kg/m3
323.15 K, 29944 kPa	992 kg/m3
323.15 K, 29972 kPa	992.2 kg/m3
323.15 K, 30466 kPa	992.5 kg/m3
323.15 K, 30496 kPa	992.4 kg/m3
323.15 K, 30520 kPa	992.4 kg/m3
323.15 K, 30549 kPa	992.5 kg/m3
323.15 K, 31454 kPa	992.9 kg/m3
323.15 K, 31474 kPa	992.9 kg/m3
323.15 K, 31495 kPa	993 kg/m3
323.15 K, 31516 kPa	993 kg/m3
323.15 K, 31533 kPa	993 kg/m3
323.15 K, 31653 kPa	993.1 kg/m3
323.15 K, 31674 kPa	993.2 kg/m3
323.15 K, 31695 kPa	993.2 kg/m3
323.15 K, 31717 kPa	993.1 kg/m3
323.15 K, 31734 kPa	993.2 kg/m3
323.15 K, 31755 kPa	993.1 kg/m3
323.15 K, 32384 kPa	993.6 kg/m3 and 993.5 kg/m3
323.15 K, 32385 kPa	993.5 kg/m3
323.15 K, 32386 kPa	993.5 kg/m3
323.15 K, 32387 kPa	993.6 kg/m3
323.16 K, 578.8 kPa	973 kg/m3
323.16 K, 580.8 kPa	973.2 kg/m3
323.16 K, 582.6 kPa	973.1 kg/m3
323.16 K, 584.7 kPa	973 kg/m3
323.16 K, 586.6 kPa	973 kg/m3
323.16 K, 588.7 kPa	973 kg/m3
323.16 K, 590.7 kPa	973.3 kg/m3
323.16 K, 714.1 kPa	973.2 kg/m3
323.16 K, 716.9 kPa	973.2 kg/m3
323.16 K, 718.8 kPa	973.3 kg/m3
323.16 K, 721.8 kPa	973.3 kg/m3
323.16 K, 724 kPa	973.2 kg/m3
323.16 K, 727.1 kPa	973.1 kg/m3
323.16 K, 729.4 kPa	973.2 kg/m3
323.16 K, 732.2 kPa	973.2 kg/m3
323.16 K, 735.1 kPa	973.1 kg/m3
323.16 K, 737.9 kPa	973.2 kg/m3
323.16 K, 1019.3 kPa	973.3 kg/m3
323.16 K, 1022.8 kPa	973.4 kg/m3
323.16 K, 1026.6 kPa	973.4 kg/m3
323.16 K, 1030.3 kPa	973.5 kg/m3
323.16 K, 1034.3 kPa	973.3 kg/m3
323.16 K, 1037.9 kPa	973.5 kg/m3
323.16 K, 1042.3 kPa	973.3 kg/m3
323.16 K, 1045.6 kPa	973.4 kg/m3
323.16 K, 1049.9 kPa	973.4 kg/m3
323.16 K, 1053.7 kPa	973.4 kg/m3
